# Results reported in doi:10.1101/2021.05.27.445942v1 (biorxiv, 2021).
# Molecular target: T1, CmedPR2 (with CmedORco) (Cnaphalocrocis medinalis, UniProt A0A0U3BFF0)
# T1 sequence (A0A0U3BFF0 1-434): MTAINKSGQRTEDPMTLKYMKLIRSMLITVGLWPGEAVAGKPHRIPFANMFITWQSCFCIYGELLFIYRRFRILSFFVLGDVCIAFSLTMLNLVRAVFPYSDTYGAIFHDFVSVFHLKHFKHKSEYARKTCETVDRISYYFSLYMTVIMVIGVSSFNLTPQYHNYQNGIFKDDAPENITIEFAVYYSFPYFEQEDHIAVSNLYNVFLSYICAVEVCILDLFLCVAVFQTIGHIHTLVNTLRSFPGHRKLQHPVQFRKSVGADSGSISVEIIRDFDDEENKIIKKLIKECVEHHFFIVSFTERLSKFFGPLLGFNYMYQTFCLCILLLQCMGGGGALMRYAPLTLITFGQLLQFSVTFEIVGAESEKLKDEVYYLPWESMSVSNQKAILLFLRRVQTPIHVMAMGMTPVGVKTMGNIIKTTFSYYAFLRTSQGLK
# T1 sequence (H9XFD5 1-473 partner): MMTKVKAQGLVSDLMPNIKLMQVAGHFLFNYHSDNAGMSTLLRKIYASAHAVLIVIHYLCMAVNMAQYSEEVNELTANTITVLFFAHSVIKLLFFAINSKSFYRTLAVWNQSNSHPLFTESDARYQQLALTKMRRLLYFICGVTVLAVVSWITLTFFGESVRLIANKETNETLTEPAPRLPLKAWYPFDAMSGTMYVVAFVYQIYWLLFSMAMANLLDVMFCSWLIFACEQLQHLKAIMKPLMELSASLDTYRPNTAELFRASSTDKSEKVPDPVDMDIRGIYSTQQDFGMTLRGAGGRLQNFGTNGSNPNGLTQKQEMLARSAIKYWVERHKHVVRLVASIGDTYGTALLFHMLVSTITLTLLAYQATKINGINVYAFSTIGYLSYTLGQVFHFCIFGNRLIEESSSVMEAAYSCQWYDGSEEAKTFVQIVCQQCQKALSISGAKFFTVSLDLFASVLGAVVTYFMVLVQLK
# Assay: two-electrode voltage clamp, Xenopus oocytes
# Assay type: cell-based
# Settings: agonist 10-4 mol/L; co-expressed CmedORco; holding potential -80 mV; pH 7.5
row,response current [nA],Compound
1,106 ± 6.4,"CCCC/C=C\CCCCCCCCCCCC=O [Z13-18:Ald, (Z)-13-octadecenal]"
2,> 140,CCCCCC/C=C\CCCCCCCC=O [Z9-16:Ald]
3,> 140,CCCC/C=C\CCCCCCCCCC=O [Z11-16:Ald]
4,46 ± 1.6,"CCCC/C=C\CCCCCCCCCCCCO [Z13-18:OH, (Z)-13-octadecen-1-ol]"
